Earlier results as cited in patent publication US9040535B2, “Crystalline molecular comlpexes of tadalafil” (THAR PHARMACEUTICALS, INC., priority 2009, dated 2015).

Key:
[1] = n-octanol/buffer pH 7.4

Question: What does the source list for `CN1CC(=O)N2[C@H](c3ccc4c(c3)OCO4)c3[nH]c4ccccc4c3C[C@@H]2C1=O` [Tadalafil, (6R-trans)-6-(1,3-benzodioxol-5-yl)-2,3,6,7,12,12a-hexahydro-2methyl-pyrazino[1′,2′:1,6]pyrido[3,4-b]indole-1,4-dione]?
Answer: apparent partition coefficient (log P)app [1]: 1.7; solubility in chloroform (chloroform): sparingly soluble; solubility in dioxane (dioxane): soluble; solubility in tetrahydrofuran (tetrahydrofuran): sparingly soluble; solubility in water (water): practically insoluble
